Experiments:
[1] = molecular target: [GSPT1]-[compound of formula (I)]-[CRBN/DDB1] complex (Homo sapiens, UniProt P15170+Q96SW2); experiment: HTRF ternary complex assay (GSPT1); assay type: binding; settings: read-out: HTRF ternary complex Average pEC50 by molecule (converted)
Procedure, shortened: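 Compounds in dose-response were incubated 180 min at 25 °C with 48 nM GSPT1 and 52.8 nM 6×His-CRBN/DDB1, plus Streptavidin-Eu cryptate and anti-6×His-d2, in buffer with 1 mM DTT and 0.5% DMSO. TR-FRET (665/620) was normalized to DMSO background and fitted with a Hill slope model for EC50/pEC50.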

[2] = molecular target: [CK1α]-[compound]-[CRBN/DDB1] ternary complex (Homo sapiens, UniProt P48729+Q96SW2); experiment: AlphaLISA assay for off-target recruitment detection, CK1α; assay type: binding; settings: 1 μM compound; normalized to FPFT-2216; read-out: Normalized ternary complex response, CK1α
Procedure, shortened: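 Neo-substrate with 40 μg/ml donor beads and 200 nM 6×His-CRBN/DDB1 with 40 μg/ml anti-His acceptor beads were each prepared in PBS pH 7.4 with Tween-20 and 1 mM DTT, preincubated 30 min at RT, then mixed. Compounds at 2% DMSO were incubated 30 min at 25 °C, read at 680/615 nm, and normalised between DMSO background and reference glue maximum.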

[3] = molecular target: T1, GSPT1-HiBiT protein in GSPT1-HiBiT HEK293 cells (Homo sapiens, UniProt P15170+Q96SW2); experiment: GSPT1 degradation assay using HiBiT system (Nano-Glo HiBiT lytic assay); assay type: cell-based; settings: 6 hours treatment; for DC50: read-out: HiBiT lytic assay Geomean absolute DC50
T1 construct: endogenous in cells; host or cells: HEK293 (CRISPR/Cas9 knock-in of HiBiT at the GSPT1 locus)
Source text: The effect of selected compounds of the invention on GSPT1 protein levels was investigated, using the GSPT1-HiBiT HEK293 cell line and the Nano-Glo HiBiT degradation assay protocol below.
GSPT1-HiBiT HEK293 cells were generated in-house using the HEK293 parental cells (ATCC, cat. no 70016364) and the CRISPR/Cas9 system. HEK293 cells were transformed with pSpCas9-BB-2A-Puro v2.0 plasmid carrying gRNA targeting the C-terminus of GSPT1 and ssODN template containing the HiBiT tag sequence with flanking homology sequences. Neon Transfection System (Thermo Fisher Scientific) was used for electroporation. HEK293 GSPT1-HiBiT cells were cultured with DMEM Glutamax (Gibco) supplemented with 10% heat inactivated FBS (Gibco). After transfection the culture medium was changed to DMEM Glutamax with 10% heat-inactivated FBS and 1% Penicillin-Streptomycin (Biowest) supplemented with Puromycin (2 μg/ml; Invivogen) for clonal selection. In order to isolate single cell clones for further validation and analysis, limiting dilution cloning in 96-well plates was performed. When the single clones reached confluency, HiBiT Lytic Assay (Promega) was performed in order to identify HiBiT positive clones. The clone selected for further studies was verified and validated using genotyping and HiBiT Blotting (Promega).
Cells were maintained in DMEM Glutamax medium, supplemented with 1% penicillin/streptomycin and 10% Fetal Bovine Serum (FBS) at 37° C., 5% CO2. Compounds were stored frozen as 20 mM DMSO stocks.
For the Nano-Glo HiBiT assay, cells were seeded onto 384-well white solid bottom plate at 2×10^3 cells/well in 40 μL using the Agilent BioTek MultiFlo FX Multimode Dispenser and incubated overnight. Following overnight incubation (37° C., 5% CO2) cells were treated with the test compounds and vehicle only (DMSO) control using the Echo 555 Liquid Handler. Twelve data-point compound titration curve with concentrations ranging from 10 μM to 0.03 nM was used. Final DMSO concentration was kept constant at 0.25% v/v across the assay plate. After 6 hours of incubation (37° C., 5% CO2), plates were removed from the incubator and let to equilibrate to RT. Luminescent signal detection was conducted using the Nano-Glo HiBiT Lytic Detection System (Promega, cat. nr N3050). Nano-Glo HiBiT Lytic Reagent was prepared freshly by diluting the LgBiT Protein (1:100 vol/vol) and the Nano-Glo HiBiT Lytic Substrate (1:50 vol/vol) in the relevant volume of the Nano-Glo HiBiT Lytic Buffer. 40 μL of the HiBiT Lytic Reagent was added per well, plates were shaken to facilitate lysis (350 rpm, 5 min, RT) and incubated in the dark for the following 10 min. Luminescence was read using the PHERAstar multimode plate reader (BMG LABTECH). The raw data (the relative luminescence unit values, RLU) were uploaded under the relevant protocol and analysed in CDDVault data management platform. Luminescence (RLU) values were normalized to the controls, and reported absolute DC50 values and Dmax values were calculated in CDDVault using non-linear regression and appropriate equations.

[CK1α]-[compound]-[CRBN/DDB1] ternary complex, sequence (P48729 whole entry): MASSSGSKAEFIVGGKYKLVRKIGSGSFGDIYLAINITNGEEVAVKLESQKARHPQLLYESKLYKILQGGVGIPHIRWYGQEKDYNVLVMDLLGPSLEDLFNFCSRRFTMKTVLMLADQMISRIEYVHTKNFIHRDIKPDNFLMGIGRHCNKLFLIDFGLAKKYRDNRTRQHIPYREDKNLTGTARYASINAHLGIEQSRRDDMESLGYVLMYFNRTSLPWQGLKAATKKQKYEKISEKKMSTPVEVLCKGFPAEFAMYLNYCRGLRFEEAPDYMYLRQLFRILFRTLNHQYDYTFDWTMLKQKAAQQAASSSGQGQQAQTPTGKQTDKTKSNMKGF
[CK1α]-[compound]-[CRBN/DDB1] ternary complex, sequence (Q96SW2 whole entry): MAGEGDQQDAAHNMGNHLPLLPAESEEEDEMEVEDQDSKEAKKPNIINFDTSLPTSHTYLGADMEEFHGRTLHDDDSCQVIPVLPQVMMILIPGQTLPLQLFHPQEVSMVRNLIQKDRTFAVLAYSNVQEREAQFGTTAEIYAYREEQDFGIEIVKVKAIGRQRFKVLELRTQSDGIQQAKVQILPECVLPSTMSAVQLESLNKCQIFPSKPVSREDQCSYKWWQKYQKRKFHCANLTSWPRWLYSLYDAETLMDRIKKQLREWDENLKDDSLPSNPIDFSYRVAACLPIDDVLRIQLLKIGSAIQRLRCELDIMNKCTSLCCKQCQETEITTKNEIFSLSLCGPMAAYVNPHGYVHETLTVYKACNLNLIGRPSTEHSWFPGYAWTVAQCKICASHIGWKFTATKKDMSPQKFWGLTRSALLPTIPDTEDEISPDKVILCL
[CK1α]-[compound]-[CRBN/DDB1] ternary complex, sequence (Q16531 whole entry partner): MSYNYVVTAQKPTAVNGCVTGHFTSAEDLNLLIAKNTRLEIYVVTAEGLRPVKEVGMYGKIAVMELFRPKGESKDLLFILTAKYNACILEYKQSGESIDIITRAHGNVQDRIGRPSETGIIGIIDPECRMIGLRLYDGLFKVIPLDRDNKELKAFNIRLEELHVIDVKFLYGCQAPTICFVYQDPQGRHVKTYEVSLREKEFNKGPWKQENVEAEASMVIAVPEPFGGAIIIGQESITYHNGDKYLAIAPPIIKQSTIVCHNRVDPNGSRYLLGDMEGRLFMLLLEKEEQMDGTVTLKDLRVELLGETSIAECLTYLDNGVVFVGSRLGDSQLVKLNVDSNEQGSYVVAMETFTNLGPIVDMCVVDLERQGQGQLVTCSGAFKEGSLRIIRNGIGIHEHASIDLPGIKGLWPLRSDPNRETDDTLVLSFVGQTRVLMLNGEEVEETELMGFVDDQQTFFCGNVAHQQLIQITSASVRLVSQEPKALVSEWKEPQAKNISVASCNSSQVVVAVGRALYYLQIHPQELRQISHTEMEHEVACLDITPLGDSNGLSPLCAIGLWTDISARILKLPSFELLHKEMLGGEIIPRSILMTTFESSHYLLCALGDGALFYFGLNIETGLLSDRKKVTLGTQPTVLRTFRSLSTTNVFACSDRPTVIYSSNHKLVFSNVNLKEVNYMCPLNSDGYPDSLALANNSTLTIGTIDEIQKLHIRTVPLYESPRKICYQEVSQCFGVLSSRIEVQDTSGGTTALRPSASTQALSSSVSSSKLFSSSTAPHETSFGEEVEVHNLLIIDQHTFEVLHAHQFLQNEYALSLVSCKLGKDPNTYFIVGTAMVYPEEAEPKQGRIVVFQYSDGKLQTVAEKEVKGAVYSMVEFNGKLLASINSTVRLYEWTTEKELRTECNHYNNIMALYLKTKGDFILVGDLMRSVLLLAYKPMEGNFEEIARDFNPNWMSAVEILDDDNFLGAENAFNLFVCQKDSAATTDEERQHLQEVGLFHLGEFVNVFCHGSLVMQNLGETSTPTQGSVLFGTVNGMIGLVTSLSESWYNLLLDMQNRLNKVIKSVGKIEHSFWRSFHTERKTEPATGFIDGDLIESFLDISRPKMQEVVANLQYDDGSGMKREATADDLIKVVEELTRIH
[GSPT1]-[compound of formula (I)]-[CRBN/DDB1] complex, sequence (P15170 whole entry): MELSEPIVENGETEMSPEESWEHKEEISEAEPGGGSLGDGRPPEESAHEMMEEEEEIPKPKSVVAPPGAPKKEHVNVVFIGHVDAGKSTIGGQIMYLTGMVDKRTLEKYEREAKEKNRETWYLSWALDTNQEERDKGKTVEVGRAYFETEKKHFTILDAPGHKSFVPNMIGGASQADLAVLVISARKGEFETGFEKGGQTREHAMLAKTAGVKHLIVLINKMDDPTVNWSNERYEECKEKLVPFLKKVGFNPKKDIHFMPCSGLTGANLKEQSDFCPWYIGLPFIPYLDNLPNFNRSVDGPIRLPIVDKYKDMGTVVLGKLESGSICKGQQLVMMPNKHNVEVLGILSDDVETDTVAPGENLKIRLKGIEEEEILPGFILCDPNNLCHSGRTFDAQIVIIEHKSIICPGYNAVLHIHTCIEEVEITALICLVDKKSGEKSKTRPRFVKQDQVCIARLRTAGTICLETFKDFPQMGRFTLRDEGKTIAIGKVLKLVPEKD
[GSPT1]-[compound of formula (I)]-[CRBN/DDB1] complex, sequence (Q96SW2 whole entry): as the sequence (Q96SW2 whole entry) above
[GSPT1]-[compound of formula (I)]-[CRBN/DDB1] complex, sequence (Q16531 whole entry partner): as the sequence (Q16531 whole entry partner) above
T1 sequence (P15170 whole entry): as the sequence (P15170 whole entry) above
T1 sequence (Q96SW2 whole entry): as the sequence (Q96SW2 whole entry) above
T1 sequence (Q16531 whole entry partner): as the sequence (Q16531 whole entry partner) above

Compound	EC50 [1] [nM]	activation at 1 µM [2] [%]	Dmax [3] [%]	DC50 [3] [nM]
COc1cc(C)c(Cl)cc1NC(=O)OCc1ccc2cc(C3CCC(=O)NC3=O)c(C)nc2c1 (stereo not shown) [Compound 21, (3-(2,6-dioxopiperidin-3-yl)-2-methylquinolin-7-yl)methyl (5-chloro-2-methoxy-4-methylphenyl)carbamate]	316 to 3160	< 10	≥ 75	10 to 50
Cc1ccc(NC(=O)OCc2ccc3cc(N4CCC(=O)NC4=O)c(C)nc3c2)cc1Cl [Compound 28, (3-(2,4-dioxotetrahydropyrimidin-1(2H)-yl)-2-methylquinolin-7-yl)methyl (3-chloro-4-methylphenyl)carbamate]	316 to 3160	< 10	≥ 75	10 to 50
Cc1ccc(NC(=O)CCc2ccc3cc(C4CCC(=O)NC4=O)c(C)nc3c2)cc1Cl (stereo not shown) [Compound 32, N-(3-chloro-4-methylphenyl)-3-(3-(2,6-dioxopiperidin-3-yl)-2-methylquinolin-7-yl)propanamide]	316 to 3160	< 10	≥ 75	10 to 50
Cc1nc2cc(COC(=O)Nc3csc(-c4ccccc4)c3)ccc2cc1C1CCC(=O)NC1=O (stereo not shown) [Compound 37, (3-(2,6-dioxopiperidin-3-yl)-2-methylquinolin-7-yl)methyl (5-phenylthiophen-3-yl)carbamate]	316 to 3160	< 10	≥ 75	10 to 50
Cc1ccc(NC(=O)OCc2ccc3cc([C@@H]4CCC(=O)NC4=O)c(C)nc3c2)cc1Cl [Compound 38, (3-(2,6-dioxopiperidin-3-yl)-2-methylquinolin-7-yl)methyl (3-chloro-4-methylphenyl)carbamate]	316 to 3160	< 10	≥ 75	50 to 100
Cc1ccc(NC(=O)OCc2ccc3c(C)c(C4CCC(=O)NC4=O)c(C)nc3c2)cc1Cl (stereo not shown) [Compound 44, (3-(2,6-dioxopiperidin-3-yl)-2,4-dimethylquinolin-7-yl)methyl (3-chloro-4-methylphenyl)carbamate]	< 316	< 10	≥ 75	< 10
Cc1ccc(NC(=O)NCc2ccc3nc(C)c(N4CCC(=O)NC4=O)cc3c2)cc1Cl [Compound 51, 1-(3-chloro-4-methylphenyl)-3-((3-(2,4-dioxotetrahydropyrimidin-1(2H)-yl)-2-methylquinolin-6-yl)methyl)urea]	< 316	< 10	≥ 75	10 to 50
Cc1ccc(NC(=O)OCc2ccc3cc(C4CCC(=O)NC4=O)c(C)nc3c2)c(Cl)c1Cl (stereo not shown) [Compound 54, (3-(2,6-dioxopiperidin-3-yl)-2-methylquinolin-7-yl)methyl (2,3-dichloro-4-methylphenyl)carbamate]	316 to 3160	< 10	≥ 75	10 to 50

The remaining lines, values ahead:

EC50 [1] [nM]	activation at 1 µM [2] [%]	Dmax [3] [%]	DC50 [3] [nM]	Compound
316 to 3160	< 10	≥ 75	10 to 50	Cc1ccc(NC(=O)OCc2cc(F)c3cc(C4CCC(=O)NC4=O)c(C)nc3c2)cc1Cl (stereo not shown) [Compound 22, (3-(2,6-dioxopiperidin-3-yl)-5-fluoro-2-methylquinolin-7-yl)methyl (3-chloro-4-methylphenyl)carbamate]
< 316	< 10	≥ 75	50 to 100	Cc1ccc(NC(=O)NCc2ccc3cc(N4CCC(=O)NC4=O)c(C)nc3c2)cc1Cl [Compound 27, 1-(3-chloro-4-methylphenyl)-3-((3-(2,4-dioxotetrahydropyrimidin-1(2H)-yl)-2-methylquinolin-7-yl)methyl)urea]
> 3160	< 10	≥ 75	10 to 50	Cc1ccc(NC(=O)OCc2ccc3nc(C)c(N4CCC(=O)NC4=O)cc3c2)cc1Cl [Compound 29, (3-(2,4-dioxotetrahydropyrimidin-1(2H)-yl)-2-methylquinolin-6-yl)methyl (3-chloro-4-methylphenyl)carbamate]
316 to 3160	< 10	≥ 75	< 10	Cc1nc2cc(COC(=O)Nc3cc(C(C)(C)C)no3)ccc2cc1C1CCC(=O)NC1=O (stereo not shown) [Compound 30, (3-(2,6-dioxopiperidin-3-yl)-2-methylquinolin-7-yl)methyl (3-(tert-butyl)isoxazol-5-yl)carbamate]
316 to 3160	< 10	≥ 75	< 10	Cc1ccc(NC(=O)OCc2ccc3cc([C@H]4CCC(=O)NC4=O)c(C)nc3c2)cc1Cl [Compound 39, (3-(2,6-dioxopiperidin-3-yl)-2-methylquinolin-7-yl)methyl (3-chloro-4-methylphenyl)carbamate]
316 to 3160	< 10	≥ 75	10 to 50	Cc1nc2cc(COC(=O)Nc3ccc(N4CCOCC4)nc3)ccc2cc1C1CCC(=O)NC1=O (stereo not shown) [Compound 42, (3-(2,6-dioxopiperidin-3-yl)-2-methylquinolin-7-yl)methyl (6-morpholinopyridin-3-yl)carbamate]
316 to 3160	< 10	≥ 75	10 to 50	COc1ccc(NC(=O)OCc2ccc3cc(C4CCC(=O)NC4=O)c(C)nc3c2)nn1 (stereo not shown) [Compound 45, (3-(2,6-dioxopiperidin-3-yl)-2-methylquinolin-7-yl)methyl (6-methoxypyridazin-3-yl)carbamate]
316 to 3160	< 10	≥ 75	10 to 50	Cc1nc2cc(COC(=O)Nc3cccc(-c4ccccc4)c3)ccc2cc1C1CCC(=O)NC1=O (stereo not shown) [Compound 46, (3-(2,6-dioxopiperidin-3-yl)-2-methylquinolin-7-yl)methyl [1,1′-biphenyl]-3-ylcarbamate]
316 to 3160	< 10	≥ 75	50 to 100	Cc1ccc(NC(=O)OCc2cc3nc(C)c(C4CCC(=O)NC4=O)cc3cc2F)cc1Cl (stereo not shown) [Compound 49, (3-(2,6-dioxopiperidin-3-yl)-6-fluoro-2-methylquinolin-7-yl)methyl (3-chloro-4-methylphenyl)carbamate]
316 to 3160	< 10	≥ 75	10 to 50	Cc1ccc(NC(=O)OCc2ccc3cc(C4CCC(=O)NC4=O)c(C)nc3c2F)cc1Cl (stereo not shown) [Compound 50, (3-(2,6-dioxopiperidin-3-yl)-8-fluoro-2-methylquinolin-7-yl)methyl (3-chloro-4-methylphenyl)carbamate]
316 to 3160	< 10	≥ 75	10 to 50	Cc1nc2cc(COC(=O)NC3CCC(C(C)(C)C)CC3)ccc2cc1C1CCC(=O)NC1=O (stereo not shown) [Compound 55, (3-(2,6-dioxopiperidin-3-yl)-2-methylquinolin-7-yl)methyl (4-(tert-butyl)cyclohexyl)carbamate]

Source: US20260232682A1, “GSPT1 DEGRADER COMPOUNDS” (Captor Therapeutics S.A., priority 2023, published 2026)
